Assay results reported in paper PMC10999558, “Analyzing resistome in soil and Human gut: a study on the characterization and risk evaluation of antimicrobial peptide resistance” (Frontiers in Microbiology, 2024).

Columns and labels:
Assay type in all cases: cell-based, Escherichia coli
Details in all cases: MHB, 37°C, 24 h, triplicate
E. coli DH5α = experiment: MIC, broth microdilution, E. coli DH5α carrying pUC118 or resistance-conferring plasmids
Experimental: (§1) Escherichia coli DH5α, E. coli BL21(DE3), and E. coli JM109 were utilized in this study.
(§2) The MICs were determined using the broth microdilution method in 96-well microtiter plates ([Wiegand et al., 2008]). In brief, a 1:100 dilution of the mid-exponential phase bacterial culture (OD600 = 0.5), consisting of 5 μL (1 × 10^5 CFU/mL), was introduced into polypropylene 96-well plates. These plates contained a two-fold dilution series of AMP in a total volume of 100 μL MHB per well. The incubation of the plates occurred at 37°C in a humidity chamber. The MIC was identified as the lowest concentration that hindered visible bacterial growth after 24 h of incubation. Each experiment was conducted in triplicate.
(§3) Following validation, the colonies displaying resistance underwent additional testing via MIC assessments for the remaining four AMPs that were not employed during the selection process. This experimental procedure was carried out in triplicate.

E. coli JM109 = experiment: MIC, broth microdilution, retransformed E. coli JM109
Experimental: as §1, §2
(§4) Before washing down the colonies, we randomly selected two clones from each plate containing distinct AMP. Colony PCRs were conducted using M13 primer pairs to validate the presence of inserts and determine their sizes. The selected colonies were then subjected to sequencing. The specific details are provided in Supplementary Table S2. Following that, plasmids were isolated using the Plasmid Midiprep Kit (Zomanbio, ZP103) following the manufacturer’s guidelines. After the plasmids were successfully reintroduced into E. coli JM109 and E. coli BL 21(DE3), the MICs of the transformed strains against the AMP used for selection were tested. This testing process was carried out in triplicate.
as §3

E. coli BL21(DE3) = experiment: MIC, broth microdilution, retransformed E. coli BL21(DE3)
Experimental: as §1, §2, §4, §3

For Polymyxin B [PB], the MIC (E. coli DH5α; E. coli DH5α containing pUC118 plasmids) was 0.5 µg/mL, the MIC (E. coli DH5α; colony pUC118-DH5α (control, no insert)) was 0.5 µg/mL and the MIC (E. coli DH5α; colony pUC118-FCST1-DH5α (feces insert 1 selected against colistin)) was 0.5 µg/mL. It also gave an MIC (E. coli DH5α; colony pUC118-FCST2-DH5α (feces insert 2 selected against colistin)) of 1 µg/mL, an MIC (E. coli DH5α; colony pUC118-FGQ1-DH5α (feces insert 1 selected against melittin)) of 1 µg/mL and an MIC (E. coli DH5α; colony pUC118-FGQ2-DH5α (feces insert 2 selected against melittin)) of 1 µg/mL. For the same substance, the MIC (E. coli DH5α; colony pUC118-FIB1-DH5α (feces insert 1 selected against iseganan)) was 0.5 µg/mL, the MIC (E. coli DH5α; colony pUC118-FIB2-DH5α (feces insert 2 selected against iseganan)) was 1 µg/mL and the MIC (E. coli DH5α; colony pUC118-FPB1-DH5α (feces insert 1 selected against polymyxin B)) was 1 µg/mL. The MIC (E. coli DH5α; colony pUC118-FPB2-DH5α (feces insert 2 selected against polymyxin B)) was 1 µg/mL, the MIC (E. coli DH5α; colony pUC118-FSA1-DH5α (feces insert 1 selected against cathelicidin-DM)) was 0.5 µg/mL and the MIC (E. coli DH5α; colony pUC118-FSA2-DH5α (feces insert 2 selected against cathelicidin-DM)) was 1 µg/mL. It also gave an MIC (E. coli DH5α; colony pUC118-SCST1-DH5α (soil insert 1 selected against colistin)) of 0.5 µg/mL, an MIC (E. coli DH5α; colony pUC118-SCST2-DH5α (soil insert 2 selected against colistin)) of 0.5 µg/mL and an MIC (E. coli DH5α; colony pUC118-SGQ1-DH5α (soil insert 1 selected against melittin)) of 0.5 µg/mL. It also gave an MIC (E. coli DH5α; colony pUC118-SGQ2-DH5α (soil insert 2 selected against melittin)) of 0.5 µg/mL, an MIC (E. coli DH5α; colony pUC118-SIB1-DH5α (soil insert 1 selected against iseganan)) of 0.5 µg/mL and an MIC (E. coli DH5α; colony pUC118-SIB2-DH5α (soil insert 2 selected against iseganan)) of 0.5 µg/mL. It also gave an MIC (E. coli DH5α; colony pUC118-SPB1-DH5α (soil insert 1 selected against polymyxin B)) of 1 µg/mL, an MIC (E. coli DH5α; colony pUC118-SPB2-DH5α (soil insert 2 selected against polymyxin B)) of 2 µg/mL and an MIC (E. coli DH5α; colony pUC118-SSA1-DH5α (soil insert 1 selected against cathelicidin-DM)) of 0.5 µg/mL. For the same substance, the MIC (E. coli DH5α; colony pUC118-SSA2-DH5α (soil insert 2 selected against cathelicidin-DM)) was 0.5 µg/mL, the MIC (E. coli JM109; colony pUC118-FCST1-JM109 (feces insert 1 selected against colistin)) was 0.25 µg/mL and the MIC (E. coli JM109; colony pUC118-FCST2-JM109 (feces insert 2 selected against colistin)) was 1 µg/mL. For the same substance, the MIC (E. coli JM109; colony pUC118-FGQ1-JM109 (feces insert 1 selected against melittin)) was 0.5 µg/mL, the MIC (E. coli JM109; colony pUC118-FGQ2-JM109 (feces insert 2 selected against melittin)) was 0.5 µg/mL and the MIC (E. coli JM109; colony pUC118-FIB1-JM109 (feces insert 1 selected against iseganan)) was 0.25 µg/mL. For the same substance, the MIC (E. coli JM109; colony pUC118-FIB2-JM109 (feces insert 2 selected against iseganan)) was 0.5 µg/mL, the MIC (E. coli JM109; colony pUC118-FPB1-JM109 (feces insert 1 selected against polymyxin B)) was 0.5 µg/mL and the MIC (E. coli JM109; colony pUC118-FPB2-JM109 (feces insert 2 selected against polymyxin B)) was 0.5 µg/mL. For the same substance, the MIC (E. coli JM109; colony pUC118-FSA1-JM109 (feces insert 1 selected against cathelicidin-DM)) was 0.25 µg/mL, the MIC (E. coli JM109; colony pUC118-FSA2-JM109 (feces insert 2 selected against cathelicidin-DM)) was 0.5 µg/mL and the MIC (E. coli JM109; colony pUC118-JM109 (control, no insert)) was 0.25 µg/mL. For the same substance, the MIC (E. coli JM109; colony pUC118-SCST1-JM109 (soil insert 1 selected against colistin)) was 0.25 µg/mL, the MIC (E. coli JM109; colony pUC118-SCST2-JM109 (soil insert 2 selected against colistin)) was 0.25 µg/mL and the MIC (E. coli JM109; colony pUC118-SGQ1-JM109 (soil insert 1 selected against melittin)) was 0.25 µg/mL. It also gave an MIC (E. coli JM109; colony pUC118-SGQ2-JM109 (soil insert 2 selected against melittin)) of 0.25 µg/mL, an MIC (E. coli JM109; colony pUC118-SIB1-JM109 (soil insert 1 selected against iseganan)) of 0.25 µg/mL and an MIC (E. coli JM109; colony pUC118-SIB2-JM109 (soil insert 2 selected against iseganan)) of 0.25 µg/mL. For the same substance, the MIC (E. coli JM109; colony pUC118-SPB1-JM109 (soil insert 1 selected against polymyxin B)) was 0.5 µg/mL, the MIC (E. coli JM109; colony pUC118-SPB2-JM109 (soil insert 2 selected against polymyxin B)) was 0.5 µg/mL and the MIC (E. coli JM109; colony pUC118-SSA1-JM109 (soil insert 1 selected against cathelicidin-DM)) was 0.25 µg/mL. For the same substance, the MIC (E. coli JM109; colony pUC118-SSA2-JM109 (soil insert 2 selected against cathelicidin-DM)) was 0.25 µg/mL, the MIC (E. coli BL21(DE3); colony pUC118-BL21(DE3) (control, no insert)) was 1 µg/mL and the MIC (E. coli BL21(DE3); colony pUC118-FCST1-BL21(DE3) (feces insert 1 selected against colistin)) was 1 µg/mL. It also gave an MIC (E. coli BL21(DE3); colony pUC118-FCST2-BL21(DE3) (feces insert 2 selected against colistin)) of 2 µg/mL, an MIC (E. coli BL21(DE3); colony pUC118-FGQ1-BL21(DE3) (feces insert 1 selected against melittin)) of 2 µg/mL and an MIC (E. coli BL21(DE3); colony pUC118-FGQ2- BL21(DE3) (feces insert 2 selected against melittin)) of 2 µg/mL. The MIC (E. coli BL21(DE3); colony pUC118-FIB1-BL21(DE3) (feces insert 1 selected against iseganan)) was 1 µg/mL, the MIC (E. coli BL21(DE3); colony pUC118-FIB2-BL21(DE3) (feces insert 2 selected against iseganan)) was 2 µg/mL and the MIC (E. coli BL21(DE3); colony pUC118-FPB1-BL21(DE3) (feces insert 1 selected against polymyxin B)) was 4 µg/mL. It also gave an MIC (E. coli BL21(DE3); colony pUC118-FPB2-BL21(DE3) (feces insert 2 selected against polymyxin B)) of 2 µg/mL, an MIC (E. coli BL21(DE3); colony pUC118-FSA1-BL21(DE3) (feces insert 1 selected against cathelicidin-DM)) of 1 µg/mL and an MIC (E. coli BL21(DE3); colony pUC118-FSA2-BL21(DE3) (feces insert 2 selected against cathelicidin-DM)) of 4 µg/mL. It also gave an MIC (E. coli BL21(DE3); colony pUC118-SCST1-BL21(DE3) (soil insert 1 selected against colistin)) of 1 µg/mL, an MIC (E. coli BL21(DE3); colony pUC118-SCST2-BL21(DE3) (soil insert 2 selected against colistin)) of 1 µg/mL and an MIC (E. coli BL21(DE3); colony pUC118-SGQ1-BL21(DE3) (soil insert 1 selected against melittin)) of 1 µg/mL. It also gave an MIC (E. coli BL21(DE3); colony pUC118-SGQ2-BL21(DE3) (soil insert 2 selected against melittin)) of 1 µg/mL, an MIC (E. coli BL21(DE3); colony pUC118-SIB1-BL21(DE3) (soil insert 1 selected against iseganan)) of 1 µg/mL and an MIC (E. coli BL21(DE3); colony pUC118-SIB2-BL21(DE3) (soil insert 2 selected against iseganan)) of 1 µg/mL. The MIC (E. coli BL21(DE3); colony pUC118-SPB1-BL21(DE3) (soil insert 1 selected against polymyxin B)) was 2 µg/mL, the MIC (E. coli BL21(DE3); colony pUC118-SPB2-BL21(DE3) (soil insert 2 selected against polymyxin B)) was 2 µg/mL and the MIC (E. coli BL21(DE3); colony pUC118-SSA1-BL21(DE3) (soil insert 1 selected against cathelicidin-DM)) was 1 µg/mL. It also gave an MIC (E. coli BL21(DE3); colony pUC118-SSA2-BL21(DE3) (soil insert 2 selected against cathelicidin-DM)) of 1 µg/mL.
